The target of assay [1] is T1, human D4 receptor (D4.2 sub-type) (Homo sapiens, UniProt P21917, DEL265-296).
T1 construct: expressed in transfected cells; host or cells: HEK 298 (so in the source)
T1 sequence (P21917 with tags, fused parts or gaps DEL265-296): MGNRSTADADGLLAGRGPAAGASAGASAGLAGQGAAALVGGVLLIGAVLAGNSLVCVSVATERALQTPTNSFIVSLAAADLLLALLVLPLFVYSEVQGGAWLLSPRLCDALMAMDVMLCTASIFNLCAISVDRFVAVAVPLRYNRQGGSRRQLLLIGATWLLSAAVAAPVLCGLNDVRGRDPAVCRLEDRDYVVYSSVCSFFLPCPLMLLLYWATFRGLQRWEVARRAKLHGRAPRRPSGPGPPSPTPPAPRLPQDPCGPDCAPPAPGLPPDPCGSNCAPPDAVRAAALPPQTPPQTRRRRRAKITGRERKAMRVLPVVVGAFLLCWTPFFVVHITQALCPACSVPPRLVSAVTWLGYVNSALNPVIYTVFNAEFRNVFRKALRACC
The experiment in a line: Dopamine D4 receptor binding assay (displacement of 3H-spiperone). The following applies: 3H-spiperone 0.25 nM, transfected with human D4.2, room temperature, 90 min; read-out: Receptor affinity D4 (Ki). In general terms: Displacement assays read how much labelled ligand stays bound in the presence of the test substance.
Method: Dopamine Receptor Binding Assay
The cells were then centrifuged in a Sorval centrifuge for 10 minutes, 5000 rpm (GS3 rotor) and the pellets quickly frozen in liquid nitrogen and stored at -80° C. until used in binding assay. When used in the assay, cells were thawed on ice for 20 minutes and then 10 mL of incubation buffer (50 mM Tris, 1 mM EDTA, 4 mM MgCl2, 5 mM KCl, 1.5 mM CaCl2, 120 mM NaCl, pH7.4) was added. […] Concentration of receptor protein was determined using the Pierce BCA assay.

The target of assay [2] is muscarinic M1/M2 receptor. The experiment in a line: Muscarinic M1/M2 receptor binding assay (displacement of 3H-QNB). As to conditions: 3H-QNB 0.126 nM, rat frontal cortex membranes, 32° C., 60 min, pH 7.4; read-out: Receptor affinity M1/M2 (Ki).
Assay [3] addresses 5-HT2 receptor (Rattus norvegicus, UniProt P14842). The experiment in a line: 5-HT2 receptor binding assay (displacement of 3H-ketanserin).
The target of assay [4] is T2, human D2 receptor (short isoform) (Homo sapiens, UniProt P14416).
T2 construct: expressed in transfected cells
The experiment in a line: Dopamine D2 receptor binding assay (displacement of 3H-spiperone). The following applies: 3H-spiperone 0.25 nM, GH4C1 cells transfected with human D2 short isoform, room temperature, 90 min; read-out: Receptor affinity D2 (Ki).
Method: GH4 C1 (rat pituitary) cells stably transfected with the human D2 receptor (short isoform) were grown in CO2 independent media in roller bottles (1500 cm^2) for 10 days. 100 μM ZnSO4 was added to the cells (the D2 promoter being zinc inducible). After 16 hours, fresh media was added to allow the cells to recover for 24 hours. The cells were harvested using versene and then centrifuged in a Sorval centrifuge for 10 minutes, at 5000 rpm (GS3 rotor). Pellets were quickly frozen in liquid nitrogen and stored at -80° C. until used in the binding assays. When used in the assay, cells were thawed on ice for 20 minutes. Each roller bottle produced approximately 72 mg of protein.
This assay employed the same procedures as the non-specific binding assay for D4 with the exception that 2 μM (final conc.) of (-) sulpiride (Research Chemicals Inc.) was used in place of dopamine.

3 compounds from patent publication US5561127A, “Muscarinic receptor ligands” (Allelix Biopharmaceuticals, Inc., priority 1994, dated 1996) can be followed below.

5-HT2 receptor, sequence (P14842 whole entry, canonical isoform): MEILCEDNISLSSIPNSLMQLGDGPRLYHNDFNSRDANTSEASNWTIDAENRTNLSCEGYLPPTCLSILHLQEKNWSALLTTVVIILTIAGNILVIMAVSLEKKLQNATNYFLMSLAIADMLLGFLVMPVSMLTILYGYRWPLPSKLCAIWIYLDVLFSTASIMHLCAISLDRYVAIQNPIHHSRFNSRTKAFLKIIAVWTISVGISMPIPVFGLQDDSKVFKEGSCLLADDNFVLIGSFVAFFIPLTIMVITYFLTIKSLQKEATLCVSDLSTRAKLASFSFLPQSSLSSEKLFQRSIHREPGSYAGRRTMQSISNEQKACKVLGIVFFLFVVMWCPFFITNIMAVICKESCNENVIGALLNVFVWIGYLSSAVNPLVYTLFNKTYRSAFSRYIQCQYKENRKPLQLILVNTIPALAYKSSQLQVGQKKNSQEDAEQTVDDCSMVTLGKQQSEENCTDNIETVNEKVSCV
T2 sequence (P14416 1-414 isoform P14416-2): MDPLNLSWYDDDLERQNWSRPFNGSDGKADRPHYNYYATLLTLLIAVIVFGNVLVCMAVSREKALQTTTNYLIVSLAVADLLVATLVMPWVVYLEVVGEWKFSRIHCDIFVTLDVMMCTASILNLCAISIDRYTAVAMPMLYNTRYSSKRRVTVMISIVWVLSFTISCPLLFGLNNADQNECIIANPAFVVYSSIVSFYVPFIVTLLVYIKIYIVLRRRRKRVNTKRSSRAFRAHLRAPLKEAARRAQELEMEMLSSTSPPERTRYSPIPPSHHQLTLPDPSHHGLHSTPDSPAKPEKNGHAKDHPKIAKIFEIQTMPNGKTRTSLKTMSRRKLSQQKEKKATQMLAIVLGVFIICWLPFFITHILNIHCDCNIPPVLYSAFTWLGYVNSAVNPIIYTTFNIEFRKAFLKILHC

Consider `CN1CC2CC1CN2C1=Nc2cc(Cl)ccc2Oc2ccccc21` (stereo not drawn) [8-chloro-11-(2-methyl-2,5-diazabicyclo(2.2.1)hept-5-yl)-dibenz[b,f][1,4]oxazepine], for which the Ki in assay [1] worked out at 4770 nM; in assay [2], 28 nM; in assay [3], 1020 nM; in assay [4], 4520 nM.

For `c1ccc(CN2CC3CC2CN3C2=Nc3ccccc3Oc3ccccc32)cc1` (stereo not drawn) [11-(2-benzyl-2,5-diazabicyclo(2.2.1)hept-5-yl)-dibenz[b,f][1,4]oxazepine], the Ki in assay [1] came out at 632 nM; in assay [2] it was 882 nM; in assay [3], 3670 nM; in assay [4] it was 1330 nM.

For `CN1CC2CC1CN2C1=Nc2cc(Cl)c(Cl)cc2Nc2ccccc21` (stereo not drawn) [7,8-dichloro-11-(2-methyl-2,5-diazabicyclo(2.2.1)hept-5-yl)-dibenzo[b,e][1,4]diazepine], the Ki turned out to be 4770 nM in assay [1], 41 nM in assay [2], 1600 nM in assay [3] and 4710 nM in assay [4].
